Among the test systems are SK-MEL-28; Malme-3M; IGROV-1; SNB-19; CAKI-1; UACC-62; MDA-MB-435; U-251; SK-MEL-2; MDA-MB-231; Hs-578T; UACC-257; SNB-75; OVCAR-8; UO-31; RPMI-8226; BT-549; TK-10; HCT-116.
What all share (assay): inhibition of tumour cell growth, NCI panel, 48 h

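All cell lines were grown in 96-well plates and treated with compound for 48 hours. GI50 marks 50% less growth.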 Active and inactive are the calls of the source. Cut-off read from the data, not from the text of the source: active = GI50 up to about 1.1 µM and inactive = higher.

Regarding `O=C(Nc1nncs1)NS(=O)(=O)n1c(=S)sc2ccccc21`, the GI50 with SK-MEL-28, with Malme-3M, with IGROV-1, with SNB-19, with CAKI-1 and in the test on UACC-62 was > 100 µM (inactive) throughout. Further, the GI50 in the test with MDA-MB-435, in the test on U-251, in the test with SK-MEL-2, with MDA-MB-231, with Hs-578T and in the test with UACC-257 was > 100 µM (inactive) throughout. The GI50 in the test with SNB-75, in the test with OVCAR-8, in the test on UO-31, in the test on RPMI-8226, in the test on BT-549 and in the test on TK-10 was > 100 µM (inactive) each time. The GI50 with HCT-116 is > 100 µM (inactive).
Take `CCN(CC)CCC(=O)c1ccc(Sc2ccc(F)cc2)cc1`: the GI50 in the test on SK-MEL-28 was 17.8 µM (inactive); in the test on Malme-3M it was 16 µM (inactive); in the test with IGROV-1 it was 18.2 µM (inactive); with SNB-19 it was 17.6 µM (inactive); in the test on CAKI-1, 16 µM (inactive); with UACC-62, 16.2 µM (inactive). For the same compound, the GI50 is 14.9 µM (inactive) in the test with MDA-MB-435; 16 µM (inactive) in the test with U-251; 21.1 µM (inactive) in the test on SK-MEL-2; 16.9 µM (inactive) in the test on MDA-MB-231; 15.8 µM (inactive) with Hs-578T; 15.7 µM (inactive) in the test with UACC-257. Besides, the GI50 in the test with SNB-75 is 17.5 µM (inactive); with OVCAR-8 it was 19.4 µM (inactive); with UO-31, 17.8 µM (inactive); in the test on RPMI-8226, 2.44 µM (inactive); in the test with BT-549, 17.2 µM (inactive); with TK-10 it was 14.4 µM (inactive). In addition, the GI50 with HCT-116 was 18.2 µM (inactive).
As to `CC1(C)O[C@@H]2C[C@H]3[C@@H]4C[C@H](F)C5=CC(=O)C=C[C@]5(C)[C@@]4(F)[C@@H](O)C[C@]3(C)[C@]2(C(=O)CO)O1` [FLUOCINOLONE ACETONIDE], the GI50 in the test with SK-MEL-28, with Malme-3M, with IGROV-1, in the test on SNB-19, with CAKI-1 and in the test on UACC-62 was > 100 µM (inactive) each time. Further, the GI50 in the test with MDA-MB-435 was > 100 µM (inactive); in the test on U-251, > 100 µM (inactive); in the test on SK-MEL-2, > 100 µM (inactive); with MDA-MB-231 it was > 100 µM (inactive); with Hs-578T it was > 100 µM (inactive); in the test with UACC-257, > 89.3 µM (inactive). The GI50 with SNB-75 was > 100 µM (inactive); with OVCAR-8 it was > 100 µM (inactive); with UO-31 it was > 87.5 µM (inactive); with RPMI-8226, < 0.01 µM (active); with BT-549, > 100 µM (inactive); in the test on TK-10, > 100 µM (inactive). Further, the GI50 in the test with HCT-116 is > 100 µM (inactive).
With `Cc1ccnc2nc(-c3cccc4ccccc34)cc(O)c12`, the GI50 is 0.00395 µM (active) with SK-MEL-28; 0.000708 µM (active) in the test on Malme-3M; 0.043 µM (active) in the test on IGROV-1; 0.0147 µM (active) in the test on SNB-19; 0.0121 µM (active) in the test on CAKI-1; 0.00196 µM (active) in the test with UACC-62. In addition, the GI50 in the test on MDA-MB-435 is 0.0001 µM (active); with U-251 it was 0.00445 µM (active); in the test on SK-MEL-2 it was 0.000458 µM (active); with MDA-MB-231 it was 0.149 µM (active); in the test with Hs-578T, 0.0141 µM (active); in the test with UACC-257, 23.1 µM (inactive). Also, the GI50 with SNB-75 was 0.00255 µM (active); in the test on OVCAR-8, 0.0203 µM (active); with UO-31, 0.0188 µM (active); in the test with RPMI-8226 it was 0.00682 µM (active); in the test on BT-549, 14.1 µM (inactive); in the test with TK-10, 0.454 µM (active). For the same compound, in the test on HCT-116, the GI50 was 0.00542 µM (active).
Take `CCO/C=N/C1=C(C#N)SC2=N/C(=C\c3ccccc3)C(=O)N21`: the GI50 with SK-MEL-28, with Malme-3M, in the test on IGROV-1, in the test on SNB-19, in the test on CAKI-1 and in the test on UACC-62 was > 100 µM (inactive) throughout. Also, the GI50 in the test with MDA-MB-435, in the test on U-251, in the test on SK-MEL-2, with MDA-MB-231, in the test on Hs-578T and with UACC-257 was > 100 µM (inactive) each time. In addition, the GI50 was > 81.3 µM (inactive) with SNB-75; > 100 µM (inactive) with OVCAR-8; > 100 µM (inactive) with UO-31; > 58.1 µM (inactive) with RPMI-8226; > 100 µM (inactive) in the test on BT-549; > 89.1 µM (inactive) with TK-10. The GI50 in the test with HCT-116 is > 100 µM (inactive).
As for `COc1ccc(C2=C(N)c3c(OC)cccc3C2=O)cc1`, the GI50 in the test on SK-MEL-28 is > 100 µM (inactive); in the test on Malme-3M, > 100 µM (inactive); in the test with IGROV-1, 60.3 µM (inactive); in the test on SNB-19, > 100 µM (inactive); with CAKI-1 it was > 100 µM (inactive); in the test on UACC-62, > 100 µM (inactive). Moreover, the GI50 in the test on MDA-MB-435 is > 100 µM (inactive); in the test with U-251, 64.9 µM (inactive); in the test on SK-MEL-2, > 100 µM (inactive); in the test with MDA-MB-231, 96.6 µM (inactive); in the test with Hs-578T it was 61.4 µM (inactive); with UACC-257, > 10 µM (inactive). The GI50 is > 100 µM (inactive) with SNB-75; 62.2 µM (inactive) with OVCAR-8; > 100 µM (inactive) with UO-31; > 100 µM (inactive) in the test on RPMI-8226; 48.6 µM (inactive) in the test with BT-549; > 10 µM (inactive) in the test on TK-10. Further, the GI50 in the test with HCT-116 was > 100 µM (inactive).
With `CC(NC(=O)c1ccc(Cl)c(Cl)c1)c1ccc(-c2ccccc2)cc1` (stereo not given), the GI50 with SK-MEL-28 is 58.6 µM (inactive); with Malme-3M, 21.5 µM (inactive); in the test on IGROV-1, 32.8 µM (inactive); in the test with SNB-19, 21.1 µM (inactive); with CAKI-1, 29.9 µM (inactive); in the test with UACC-62, 31.6 µM (inactive). The GI50 with MDA-MB-435 is 69.5 µM (inactive); with U-251 it was 31.7 µM (inactive); in the test with SK-MEL-2 it was > 100 µM (inactive); in the test on MDA-MB-231, 42.7 µM (inactive); with Hs-578T, 27 µM (inactive); in the test on UACC-257 it was 76.2 µM (inactive). Besides, the GI50 in the test on SNB-75 is 15.8 µM (inactive); in the test on OVCAR-8, 26.3 µM (inactive); in the test with UO-31, 14.2 µM (inactive); in the test with RPMI-8226, 39.4 µM (inactive); in the test on BT-549, 66.5 µM (inactive); in the test on TK-10, 29 µM (inactive). The GI50 in the test on HCT-116 is 59.3 µM (inactive).
With `COc1ccc(C[C@H]2COC(=O)[C@@H]2Cc2cc(OC)c(OC)c(OC)c2)cc1OC`, the GI50 with SK-MEL-28 is 98.2 µM (inactive); with Malme-3M, > 100 µM (inactive); with IGROV-1 it was > 94.6 µM (inactive); in the test with SNB-19 it was > 100 µM (inactive); in the test on CAKI-1, > 100 µM (inactive); in the test with UACC-62, 72.1 µM (inactive). Also, the GI50 in the test on MDA-MB-435 was > 81.1 µM (inactive); with U-251, > 100 µM (inactive); in the test with SK-MEL-2 it was > 88.3 µM (inactive); in the test on MDA-MB-231 it was > 87.3 µM (inactive); with Hs-578T, 38 µM (inactive); in the test on UACC-257, > 75 µM (inactive). Besides, the GI50 was > 67.8 µM (inactive) in the test on SNB-75; 50.1 µM (inactive) in the test with OVCAR-8; 43.6 µM (inactive) in the test with UO-31; 17.1 µM (inactive) with RPMI-8226; 32 µM (inactive) in the test with BT-549; > 100 µM (inactive) in the test with TK-10. Moreover, the GI50 in the test with HCT-116 was > 87.9 µM (inactive).
In the case of `CCOC(=O)CC1Nc2ccccc2C12CCc1c([nH]c3ccccc13)C2C(=O)OCC` (stereo not given), the GI50 in the test with SK-MEL-28 was 35.1 µM (inactive); in the test on Malme-3M, 10.5 µM (inactive); with IGROV-1 it was 6.92 µM (inactive); with SNB-19, > 100 µM (inactive); in the test on CAKI-1, 6.58 µM (inactive); in the test with UACC-62, 9.62 µM (inactive). For the same compound, the GI50 in the test on MDA-MB-435 was 4.79 µM (inactive); with U-251, 48.5 µM (inactive); in the test with SK-MEL-2 it was 27 µM (inactive); with MDA-MB-231, 22.9 µM (inactive); in the test on Hs-578T, 8.18 µM (inactive); in the test on UACC-257, 38 µM (inactive). Moreover, the GI50 in the test on SNB-75 was 0.0728 µM (active); in the test with OVCAR-8 it was > 100 µM (inactive); in the test on UO-31, 36.1 µM (inactive); in the test on RPMI-8226, 2.77 µM (inactive); in the test on BT-549 it was > 100 µM (inactive); in the test on TK-10, 32.5 µM (inactive). Moreover, in the test with HCT-116, the GI50 is 12.9 µM (inactive).
On to `O=C1C(c2cnc3ccccc3n2)=C(O)c2ccccc21`, for which the GI50 with SK-MEL-28 was > 82.4 µM (inactive); in the test with Malme-3M it was > 100 µM (inactive); with IGROV-1, > 83 µM (inactive); in the test with SNB-19, > 85.3 µM (inactive); in the test on CAKI-1 it was > 24.5 µM (inactive); in the test with UACC-62, > 100 µM (inactive). Besides, the GI50 is 4.19 µM (inactive) in the test with MDA-MB-435; 58.6 µM (inactive) in the test on U-251; > 100 µM (inactive) in the test with SK-MEL-2; > 100 µM (inactive) in the test with MDA-MB-231; > 57.7 µM (inactive) with Hs-578T; > 71 µM (inactive) in the test on UACC-257. Moreover, the GI50 in the test with SNB-75 is 22 µM (inactive); in the test on OVCAR-8, > 75.7 µM (inactive); in the test on UO-31, > 100 µM (inactive); with RPMI-8226 it was > 61.1 µM (inactive); with BT-549, > 100 µM (inactive); with TK-10 it was 18.3 µM (inactive). Moreover, in the test on HCT-116, the GI50 was > 95.7 µM (inactive).

These data come from ChEMBL document CHEMBL1201862, “PubChem BioAssay data set” (2004).
